The conditions of series [1]: cited from earlier work.
The conditions of series [2]: cited from earlier work. The source holds these as a separate data set.
Series [3] has as its system HeLa cells. Kind of series: Cell proliferation with free drug, 72 hours incubation, MTT assay. The class given is cell-based, Human. The conditions noted are these: incubated with the cells for 72 hours; read-out: IC50 against HeLa cells. How it is done: FIG. 6A and FIG. 6B show inhibition of HeLa (FIG. 6A) and MDA-MB-231 (FIG. 6B) cell proliferation by free MMAE modified with a succinimide nitrophenyl-based linker (MMAE+linker) and by unmodified MMAE. For each cell assay 3,000 cells/well were seeded, allowed to adhere overnight and incubated with either compound for 72 hours in complete medium at physiologic pH. Cell viability was determined with the MTT assay. All measurements were normalized to the 1% DMSO controls. Results are shown as mean±SD (n=6). Data were fitted with a sigmoidal dose response function in Prism for Mac (GraphPad Software, Inc.).
Cell Culture. Human cervical adenocarcinoma HeLa cells and human breast adenocarcinoma MDA-MB-231 cells were cultured in Dulbecco's modified Eagle's medium (DMEM supplemented with 10% FBS, 100 U/mL penicillin, and 0.1 mg/mL streptomycin in a humidified atmosphere of 5% CO2 at 37° C.
For orientation: Tetrazolium dyes change colour on reduction, which living cells bring about.

For the next series, the system named is MDA-MB-231 cells. The experiment in a line: Anti-proliferation Assay (2 hours treatment at pH 7.4 or 5.0, 72 hours growth, MTT). How it is done: (§1) FIG. 3A, FIG. 3C and FIG. 3E show HeLa cells treated with pHLIP(WT)-MMAE, pHLIP(D25E)-MMAE, and MMAE(linker), respectively. FIG. 3B, FIG. 3D and FIG. 3F show MDA-MB-231 cells treated with pHLIP(WT)-MMAE, pHLIP(D25E)-MMAE, and MMAE(linker), respectively. Black columns represent cells treated at pH 7.4 and cells treated at low pH are shown in grey. For each condition, 3,000 cells/well (96-well plate) were seeded, allowed to adhere overnight, treated for 2 hours, washed once with media and grown for 72 hour in complete medium at physiologic pH. Cell viability was assessed with the MTT assay. All measurements were normalized to the media control (0 μM, pH 7.4), as 100% cell viability. Results are shown as mean±SD (n=6-9).
(§2) Anti-proliferation Assay. HeLa and MDA-MB-231 cells were seeded in 96-well plates at a density of 3,000 cells/well and incubated overnight. Before treatment, construct aliquots were solubilized in an appropriate volume of DMEM without FBS (pH 7.4)—so that upon pH adjustment the desired treatment concentration is obtained—and gently sonicated for 30-60 seconds using a bath sonicator (Branson Ultrasonics). After removal of cell media, this treatment solution was added to each well and incubated at 37° C. for 5-10 minutes. The pH was then adjusted to the desired value using a pre-established volume of DMEM, pH 2.0 buffered with citric acid (final volume=50 μL) and the plate was incubated at 37° C. for 2 hours. After treatment, the media was removed, cells were washed once with 100 μL of complete DMEM, and 100 μL of complete medium was added to each well before returning the plate to the incubator. Treatment solutions were collected and their pH values measured using a micro-combination pH probe (Microelectrodes, Inc.). […] Cell viability was determined after 72 hours using the colorimetric MTT assay. Briefly, 10 μL of a 5 mg/mL MTT stock solution was added to the treated cells and incubated for 2 hours at 37° C. The resulting formazan crystals were solubilized in 200 μL DMSO and the absorbance measured at 580 nm using an Infinite 200 PRO microplate reader (Tecan). Cell viability was calculated against control cells treated with media at physiologic pH.
(§3) Inhibition of Cell Proliferation. The ability of pHLIP to move MMAE across the cell membrane and to inhibit cancer cell proliferation in concentration and pH-dependent manners was evaluated. Cell treatments for both pHLIP(WT)-MMAE and pHLIP(D25E)-MMAE constructs were carried out with conjugate concentrations ranging from 1.25 to 10 μM at either pH 7.4 or 5.0. After a 2-hour incubation at 37° C., the treatment media was replaced by fresh media, and cells were grown for an additional 72 hours at normal pH before assessing cell viability using the MTT assay. […] This treatment protocol is quite stringent when compared to the typical multi-days exposure treatments used with free drugs (FIG. 6A and FIG. 6B).

Series [4] has as its system HeLa cells. The series is described as above. The procedure:
as §1
HeLa cells treated with pHLIP(WT)-MMAF (FIG. 9A), pHLIP(D25E)-MMAF (FIG. 9B), pHLIP(P20G)-MMAF (FIG. 9C), and pHLIP(R11Q)-MMAF (FIG. 9D). Circles represent cells treated at pH 7.4 and squares represent cells treated at pH 5.0. Results are shown as the mean±SEM (n=6-9).
as §2, §3

The test system of a further series is HeLa tumors. The following applies: end of the three week study, n=8. How it is done: HeLa (ATCC#CCL-2) were injected subcutaneously into the inguinal space of female Ncr nu/nu mice. Tumors were allowed to develop until they were approximately 75 mm^3 in size. […] On days 1, 3, 5, and 8, animals were injected intravenously with 200 microliters of either pHLIP-MMAF (20 microM in PBS+1% DMSO) or vehicle control (PBS+1% DMSO). Tumors were measured with calipers on routine basis for approximately 3 weeks and tumor volumes calculated with the formula: length×width×(height×0.5). Animals were euthanized when tumors reached a volume of 500 mm^3. FIG. 10A depicts tumor growth as a function of initial tumor volume. FIG. 10B depicts tumor volume. FIG. 10C depicts overall survival.
HeLa (ATCC#: CCL-2) were injected subcutaneously (s.c.) into the inguinal space of female Ncr nu/nu mice. Tumors were allowed to develop until they were approximately 75 mm^3 in size. […] On days 1, 3, 5, and 8 animals were injected intravenously with 200 microliters of either pHLIP-MMAF (20 microM in PBS+1% DMSO) or vehicle control (PBS+1% DMSO). Tumors were measured with calipers on routine basis for approximately 3 weeks and tumor volumes calculated with the formula Length×Width×(Height×0.5). […] A tumor volume of 500 mm^3 was prospectively set as the stopping point for this study.

A further series deals with A431 tumors. The following applies: i.p., 1 mg/kg.
Series [5] is described as follows: Toxicity Studies (CBC and comprehensive metabolic panel). The format is in vivo. The conditions noted are these: four 1 mg/kg injections on days 1, 3, 5 and 7; monitored 2 weeks after final injection. How it is done:
Four one milligram/kilogram (1 mg/kg) injections of pHLIP(WT)-MMAF are given to subjects on days 1, 3, 5 and 7. Overall health, liver and kidney function, and electrolytes are monitored using a complete blood count (CBC) and comprehensive metabolic panel, for a period of 2 weeks after the final injection.

The conditions of series [6]: cited from earlier work. The source holds these as a separate data set.
The mark [7] stands for this setting: 2.5 μL (so in the source), low pH.

Entries after “also recorded” stand apart in the source; their conditions may differ. Positions of bridges follow the written chain, without caps; N, C: chain ends. Non-standard residues stand in square brackets, D forms with d. Residues, ends and D or L forms follow the SMILES beside them. Chains are numbered I, II in the order given. No end group written: not given here. *: point of attachment. Dolaproine = CO[C@@H]([C@@H]1CCCN1)[C@@H](C)C(=O)O; Dil = CC[C@H](C)[C@H](NC)[C@@H](CC(=O)O)OC; X1 = C[C@@H](N*)[C@@H](O)c1ccccc1; NMeV = CN[C@H](C(=O)O)C(C)C; Mpa = O=C(O)CCS

One may read the IC50 as the concentration at which inhibition is half-maximal. Regarding `CC[C@H](C)[C@@H]([C@@H](CC(=O)N1CCC[C@H]1[C@H](OC)[C@@H](C)C(=O)N[C@@H](Cc1ccccc1)c1nccs1)OC)N(C)C(=O)[C@@H](NC(=O)[C@H](C(C)C)N(C)C)C(C)C` [Dolastatin 10], the concentration for half-maximal inhibition (IC50) in series [1] was 0.1 nM. For the same compound, the “Log P o/w” value in series [2] was 3.4.
In the case of `CC[C@H](C)[C@@H]([C@@H](CC(=O)N1CCC[C@H]1[C@H](OC)[C@@H](C)C(=O)N[C@H](C)[C@@H](O)c1ccccc1)OC)N(C)C(=O)[C@@H](NC(=O)[C@@H](NC)C(C)C)C(C)C` [MMAE, monomethyl auristatin E, reference compound] (H-[NMeV]V[Dil][Dolaproine]-X1), the concentration for half-maximal inhibition (IC50) is 0.1 to 2 nM in [1] and about 4 nM with HeLa cells [3]. The cytotoxicity in the series on MDA-MB-231 cells (setting [7]) was 20-30%; with HeLa cells [4] (setting [7]) it was 20-30%; with HeLa cells [4] (physiological pH, 5 μM) it was “about 70%”. Also, the “Log P o/w” value in [2] is 2.2.
As for `CC[C@H](C)[C@@H]([C@@H](CC(=O)N1CCC[C@H]1[C@H](OC)[C@@H](C)C(=O)N[C@@H](Cc1ccccc1)C(=O)O)OC)N(C)C(=O)[C@@H](NC(=O)[C@@H](NC)C(C)C)C(C)C` [MMAF, monomethyl auristatin F] (H-[NMeV]V[Dil][Dolaproine]F-OH), the IC50 in series [1] was 105 to 250 nM. The “Log P o/w” value in series [2] is 0.7.
As for `CC[C@H](C)[C@@H]([C@@H](CC(=O)N1CCC[C@H]1[C@H](OC)[C@@H](C)C(=O)N[C@@H](Cc1ccccc1)C(=O)OC)OC)N(C)C(=O)[C@@H](NC(=O)[C@@H](NC)C(C)C)C(C)C` [MMAF-Ome, monomethyl auristatin F-OMe] (H-[NMeV]V[Dil][Dolaproine]F-OMe), the IC50 in series [1] is 0.001 nM. In addition, the “Log P o/w” value in [2] is 2.8.
Regarding “I: AAEQNPIYWARYADWLFTTPLLLLDLALLVDADEGTCG-NH2 / II: [Mpa][NMeV]V[Dil][Dolaproine]F (disulfide I:37-II:1; C-terminus assumed) [pHLIP(WT)-MMAF]”, the “animals removed for tumor size exceeding 500 mm^3” value with HeLa tumors is “only a single animal”. Further, the “effect on A431 tumors” value with A431 tumors is “Analogous results were obtained”. Also, in [5], the “overall health, liver and kidney function, electrolytes” value is “Clinically significant differences in overall health, liver and kidney function, and electrolytes were not observed”. Also, the “improvement over treatments with pHLIP(WT)-MMAE” value in the series with HeLa cells [4] was “ca. 100 fold”. Also, the cell killing result in the series with HeLa cells [4] (pH 7.4 versus pH 5.0) was “clear pH-selective and concentration-dependent killing”.
For the compound amanitin, in series [6], the pKa of insertion is listed as 5.9.
For the compound “pHLIP(D25E) (AAEQNPIYWARYADWLFTTPLLLLELALLVDADEGTCG-NH2) [reference compound]”, the “effect of peptide alone on cell viability” value in the series with MDA-MB-231 cells (10 μM, pH 7.4 or pH 5.0) is given as “not cytotoxic; also recorded: neither pHLIP(WT) or pHLIP(D25E) peptides have any harmful effects”; in the series on HeLa cells [4] (10 μM, pH 7.4 or pH 5.0), “not cytotoxic; also recorded: neither pHLIP(WT) or pHLIP(D25E) peptides have any harmful effects”. In addition, the pKa of insertion in series [6] was 6.49.

The values above are taken from patent US20170267727A1, “Conjugates of pH Low Insertion Peptide and Monomethyl Auristatins in the Treatment of Solid Tumors” (Lehigh University, priority 2016, published 2017).
